Tests used:
Penicillium digitatum [1] = test: Natural infection of orange and lemon fruit, semi-commercial on line spray treatment; assay type: in vivo; settings: line spray within 48 hours after harvest, 50-55° F., after 3 weeks
Excerpt: Additional tests were also done to determine the effect of different combinations of biochemicals and microorganisms on natural infections of citrus fruit. Orange and lemon fruit from field bins were washed on line following standard commercial practices [Standard Pre Chlorine was (50 ppm); size and color blemish sorting, and randomized]. Thereafter the fruit was washed and treated with either water, a yeast cell suspension containing 0.1% lysozyme, or Imazalil using an on line spray system. Each treatment consisted of at least 8 to 13 boxes of fruit; each box representing a replicate of approximately 60 to 100 fruit. The fruit was held at 50-55° F. and the percentage of decay was determined after 3 weeks.

Botrytis cinerea = test: Inhibition of spore germination in 24-well microtiter dish; assay type: cell-based; settings: for Inhibition of Germination (%) Botrytis cinerea: five hundred spores per well, 0.2% maltose extract broth, 24° C., after 24 hours
Procedure: The inhibitory activity of antifungal enzymes, in this example, lysozyme and lyticase, against the pathogen Botrytis cinerea, was determined in a 24-well microtiter dish. Autoclaved solutions of 0.2% maltose extract broth were amended with membrane-sterilized solutions of lysozyme and lyticase to obtain a concentration of 0.1% and 0.5% of lysozyme and lyticase, respectively. One hundred microliters of the enzyme solution was dispensed into each well. Each well was inoculated with five hundred spores of B. cinerea. Four replicates of eight wells were used for each treatment. Microtiter dishes were incubated in the dark at 24° C. Percent spore germination was determined after 24 hours. Spores were inhibited by either enzyme.

Candida saitoana = test: Survival of Candida saitoana in enzyme solutions (yeast maltose broth); assay type: cell-based; settings: for Yeast Cell Counts (CFU/ml) 1 day / Yeast Cell Counts (CFU/ml) 4 days: inoculated with 10^4 yeast cells/ml, yeast maltose broth
Procedure: The effect of lysozyme and lyticase on the survival of C. saitoana in yeast maltose broth was also determined. Culture flasks containing sterile solutions of 0.2% yeast maltose broth were amended with membrane-sterilized solutions of lysozyme and lyticase to obtain a concentration of 0.1% and 0.6% of lysozyme and lyticase, respectively. Each flask was started with approximately 10^4 colony forming units (CFU) of yeast and the flasks were incubated on an orbital shaker set at 200 rpm. Samples were collected and dilution-plated in duplicate on yeast-maltose agar medium. The plates were incubated 24° C. and colonies were counted after 48 h.

Penicillium digitatum [2] = test: Protective effect on decay of wounded orange and lemon fruit, treated then challenge inoculated; assay type: in vivo; settings: wounds treated then inoculated with 20 μL P. digitatum 10^4 conidia/ml, 7 days at 24° C.
Procedure: (§1) Yeast cells from 48 hour old cultures of C. saitoana were pelleted by centrifugation, resuspended in sterile distilled water, and centrifuged. Pellets were suspended in water, 0.01% and 0.1% lysozyme of 0.6% lyticase, and the concentration of the yeast suspension was adjusted to 10^8 CFU/ml.
(§2) Apple, orange, and lemon fruit were individually wounded and each wound was treated with fifty microliters of one of the following treatments:
yeast cell suspension (C. saitoana);
yeast cell suspension containing 0.01% or 0.1% lysozyme;
yeast cell suspension containing 0.6% lyticase;
(§3) Fruit wounds were either treated with the different treatments and then inoculated with 20 μL of a pathogen spore suspension to determine protective effects, or inoculated with a pathogen spore suspension and 24 hours later were treated with the different treatments to determine curative effects. Apple wounds were inoculated (i.e., pathogens were placed in the wound) with the pathogens B. cinerea and P. expansum, whereas orange and lemon wounds were inoculated with P. digitatum. Treated fruit were incubated at 24° C. in plastic trays at high humidity. For each treatment, 20 to 100 fruit were arranged in a randomized complete block design. Percent infection was determined for each treatment after 7 days of storage. The tests were repeated twice. […] The effect was greater than for either agent alone.

P. expansum = test: Curative effect on established infection of apple fruit (treated 24 hours after inoculation); assay type: in vivo, Penicillium expansum; settings: treatment 24 hours after inoculation
Procedure: as §1, §2, §3
(§4) In the past, the lack of curative activity has been identified as a major limitation of biological approaches to pathogen control.

P. digitatum = test: Curative effect on established infection of citrus fruit (treated 24 hours after inoculation); assay type: in vivo, Penicillium digitatum; settings: treatment 24 hours after inoculation
Procedure: as §1, §2, §3, §4

C=CCOC(Cn1ccnc1)c1ccc(Cl)cc1Cl (stereo not shown) [Imazalil]
Infected Fruit (%) Penicillium digitatum Lemon (Penicillium digitatum [1]; lemon): 4.6b % | Infected Fruit (%) Penicillium digitatum Orange (Penicillium digitatum [1]; orange): 2.4b %

lysozyme
Inhibitory activity against Botrytis cinerea spores (in words) (Botrytis cinerea): inhibitory | Inhibition of Germination (%) Botrytis cinerea (Botrytis cinerea): 100% | Effect on growth / survival of the yeast C. saitoana (in words) (Candida saitoana): no effect | Yeast Cell Counts (CFU/ml) 1 day (Candida saitoana): >2.0 × 10^5 CFU/ml | Yeast Cell Counts (CFU/ml) 4 days (Candida saitoana): >2.0 × 10^5 CFU/ml | Infected Fruit (%) Penicillium digitatum Lemon (Penicillium digitatum [2]): 86b % | Infected Fruit (%) Penicillium digitatum Orange (Penicillium digitatum [2]): 88% | Infected Fruit (%) Penicillium digitatum Orange (Penicillium digitatum [2]; listed as 0.01% lysozyme): 88b % | Effect on established infection caused by P. expansum (in words) (P. expansum): little effect | Effect on established infection caused by P. digitatum (in words) (P. digitatum): little effect

lyticase
Inhibitory activity against Botrytis cinerea spores (in words) (Botrytis cinerea): inhibitory | Inhibition of Germination (%) Botrytis cinerea (Botrytis cinerea): 100% | Effect on growth / survival of the yeast C. saitoana (in words) (Candida saitoana): no effect | Yeast Cell Counts (CFU/ml) 1 day (Candida saitoana): >2.0 × 10^5 CFU/ml | Yeast Cell Counts (CFU/ml) 4 days (Candida saitoana): >2.0 × 10^5 CFU/ml | Infected Fruit (%) Penicillium digitatum Lemon (Penicillium digitatum [2]): 85b % | Infected Fruit (%) Penicillium digitatum Orange (Penicillium digitatum [2]): 88% | Infected Fruit (%) Penicillium digitatum Orange (Penicillium digitatum [2]; listed as 0.1% lyticase): 88b % | Effect on established infection caused by P. expansum (in words) (P. expansum): little effect | Effect on established infection caused by P. digitatum (in words) (P. digitatum): little effect
